Test results from ChEMBL document CHEMBL1140463, “From ATP to AZD6140: the discovery of an orally active reversible P2Y12 receptor antagonist for the prevention of thrombosis” (Bioorg Med Chem Lett, 2007).
Active and inactive are the calls of the source. The calls are words filed in the database; no cut-off is given here.

Tests used:
P2Y purinoceptor 12 = P2Y purinoceptor 12 (Homo sapiens, UniProt Q9H244); assay: Displacement of [125I] labeled ligand from human P2Y12 receptor in human platelets
Chain of P2Y purinoceptor 12 (Q9H244 whole entry): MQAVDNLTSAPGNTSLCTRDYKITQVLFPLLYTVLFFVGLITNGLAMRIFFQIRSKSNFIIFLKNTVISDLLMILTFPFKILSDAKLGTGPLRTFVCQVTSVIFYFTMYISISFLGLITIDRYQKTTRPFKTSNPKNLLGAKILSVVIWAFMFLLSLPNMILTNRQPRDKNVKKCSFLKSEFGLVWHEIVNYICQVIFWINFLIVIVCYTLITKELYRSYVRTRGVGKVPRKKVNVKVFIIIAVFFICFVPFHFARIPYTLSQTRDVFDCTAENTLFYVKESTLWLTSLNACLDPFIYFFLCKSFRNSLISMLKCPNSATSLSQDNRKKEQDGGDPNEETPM

[1] = Oral bioavailability in rat at 3 to 10 mg/kg; assay type: ADME, organism-based; details: in vivo
Hepatocyte [2] = assay: Metabolic stability in human hepatocytes in presence of UDPGA relative to zileuton; assay type: ADME, cell-based
Hepatocyte [3] = assay: Metabolic stability in human hepatocytes in presence of NADPH relative to dextromethorphan; assay type: ADME, cell-based
Canis familiaris = assay: Inhibition of ADP-induced platelet aggregation in po dosed dog; assay type: functional, organism-based; details: Canis lupus familiaris
[4] = Volume of distribution at steady state in rat at 3 mg/kg, iv; assay type: ADME, organism-based; parameters: dose 3 mg/kg, route intravenous; details: in vivo, read-out: Vdss
[5] = Half life in rat at 3 mg/kg, iv; assay type: ADME, organism-based; parameters: dose 3 mg/kg, route intravenous; details: in vivo
in vivo = details: rat, iv, 3 mg/kg
Description: Plasma clearance in rat at 3 mg/kg, iv

[6] = Plasma clearance in dog at 1 mg/kg, iv; assay type: ADME, organism-based, Canis lupus familiaris; parameters: dose 1 mg/kg, route intravenous
[7] = Volume of distribution at steady state in dog at 1 mg/kg, iv; assay type: ADME, organism-based, Canis lupus familiaris; parameters: dose 1 mg/kg, route intravenous; details: in vivo, read-out: Vdss
[8] = Half life in dog at 1 mg/kg, iv; assay type: ADME, organism-based, Canis lupus familiaris; parameters: dose 1 mg/kg, route intravenous; details: in vivo
[9] = Oral bioavailability in dog at 1 mg/kg; assay type: ADME, organism-based, Canis lupus familiaris; details: in vivo

SMILES | Ki (P2Y purinoceptor 12) | bioavailability [1] | Ratio (Hepatocyte [2]) | Stability (Hepatocyte [3]) | Activity (Canis familiaris) | Vd [4] | half-life [5] | Stability (Hepatocyte [2]) | Ratio (Hepatocyte [3]) | clearance (in vivo; plasma) | clearance [6] | Vd [7] | half-life [8] | bioavailability [9] | clearance (in vivo; in vivo)
CCCSc1nc(N[C@@H]2C[C@H]2c2ccccc2)c2nnn([C@@H]3C[C@H](O)[C@@H](O)[C@H]3O)c2n1 | 2 nM | 50% | 3 | Stable |  |  |  |  |  |  |  |  |  |  | 
CCCSc1nc(N[C@@H]2C[C@H]2c2ccccc2)c2nnn([C@@H]3C[C@H](CO)[C@@H](O)[C@H]3O)c2n1 [listing 1 of 2 here] |  |  |  |  | Active |  |  |  |  |  |  |  |  |  | 
OCCO[C@H]1C[C@@H](n2nnc3c(N[C@@H]4C[C@H]4c4ccc(F)c(F)c4)nc(SCCC(F)(F)F)nc32)[C@H](O)[C@@H]1O | 0.631 nM | 9% |  |  |  | 2.1 L/kg | 2.5 h | Stable | 32 | 12 mL/min/kg |  |  |  |  | 
CCCSc1nc(N[C@@H]2C[C@H]2c2ccccc2)c2nnn([C@@H]3CC[C@@H](O)[C@H]3O)c2n1 | 2.51 nM | 38% | 1 |  |  |  |  |  |  |  |  |  |  |  | 
CCCSc1nc(N[C@@H]2C[C@H]2c2ccccc2)c2nnn([C@@H]3C[C@H](CO)[C@@H](O)[C@H]3O)c2n1.Cl | 6.31 nM | 37% | 19 |  |  |  |  |  | 27 |  |  |  |  |  | 
CCCCNc1nc(SCCC)nc2c1nnn2[C@@H]1C[C@H](C(=O)O)[C@@H](O)[C@H]1O | 5.01 nM | < 5% |  |  |  | 0.4 L/kg | 0.5 h |  |  | 30 mL/min/kg |  |  |  |  | 
OC[C@H]1C[C@@H](n2nnc3c(N[C@@H]4C[C@H]4c4ccccc4)nc(SCCC(F)(F)F)nc32)[C@H](O)[C@@H]1O | 5.01 nM |  | 19 | Stable |  |  |  |  |  |  |  |  |  |  | 
CCCSc1nc(N[C@@H]2C[C@H]2c2ccc(F)c(F)c2)c2nnn([C@@H]3C[C@H](OCCO)[C@@H](O)[C@H]3O)c2n1 [TICAGRELOR] | 2 nM | 24% |  |  |  | 3.8 L/kg | 2.6 h | Stable | 24 | 21 mL/min/kg | 9 mL/min/kg | 3 L/kg | 2.9 h | 72% | 
CCCSc1nc(N[C@@H]2C[C@H]2c2ccccc2)c2nnn([C@@H]3C[C@H](OCCO)[C@@H](O)[C@H]3O)c2n1 | 3.16 nM | 26% | 24 |  |  |  |  |  | 13 |  |  |  |  |  | 
CCCCNc1nc(SCCC)nc2c1nnn2[C@@H]1C[C@H](C(N)=O)[C@@H](O)[C@H]1O | 20 nM | < 5% |  |  |  | 1.6 L/kg | 1.4 h |  |  | 21 mL/min/kg |  |  |  |  | 
CCCSc1nc(N[C@@H]2C[C@H]2c2ccccc2)c2nnn([C@@H]3C[C@H](C(=O)O)[C@@H](O)[C@H]3O)c2n1 | 0.251 nM |  |  |  |  | 0.5 L/kg | 0.5 h |  |  | 16 mL/min/kg |  |  |  |  | 
CCCCNc1nc(SCCC)nc2c1nnn2[C@@H]1C[C@H](CO)[C@@H](O)[C@H]1O | 79.4 nM | < 5% |  |  |  | 2.3 L/kg | 1.2 h |  |  |  |  |  |  |  | 29 mL/min/kg
CCCSc1nc(N[C@@H]2C[C@H]2c2ccccc2)c2nnn([C@@H]3C[C@H](CO)[C@@H](O)[C@H]3O)c2n1 [listing 2 of 2 here] | 5.01 nM | 35% | 5 |  |  | 2.9 L/kg | 2.5 h |  | > 30 | 16 mL/min/kg |  |  |  |  | 
CCCSc1nc(N[C@@H]2C[C@H]2c2ccccc2)c2nnn([C@@H]3C[C@H](C(N)=O)[C@@H](O)[C@H]3O)c2n1 | 1.58 nM | < 5% |  |  |  | 2.2 L/kg | 2 h |  |  | 20 mL/min/kg |  |  |  |  | 
OC[C@H]1C[C@@H](n2nnc3c(N[C@@H]4C[C@H]4c4ccc(F)c(F)c4)nc(SCCC(F)(F)F)nc32)[C@H](O)[C@@H]1O | 5.01 nM | 17% |  |  |  | 2.7 L/kg | 3 h | Stable | > 30 | 11 mL/min/kg | 16.5 mL/min/kg | 5.6 L/kg | 4.8 h | 59% | 
